{
  "source": "ChEMBL document CHEMBL1201862",
  "about": "“PubChem BioAssay data set” (2004)",
  "key": {"[1]": {"biological_target": "T1, Cytochrome P450 1A2 (Homo sapiens, UniProt P05177)", "T1 sequence (P05177 whole entry)": "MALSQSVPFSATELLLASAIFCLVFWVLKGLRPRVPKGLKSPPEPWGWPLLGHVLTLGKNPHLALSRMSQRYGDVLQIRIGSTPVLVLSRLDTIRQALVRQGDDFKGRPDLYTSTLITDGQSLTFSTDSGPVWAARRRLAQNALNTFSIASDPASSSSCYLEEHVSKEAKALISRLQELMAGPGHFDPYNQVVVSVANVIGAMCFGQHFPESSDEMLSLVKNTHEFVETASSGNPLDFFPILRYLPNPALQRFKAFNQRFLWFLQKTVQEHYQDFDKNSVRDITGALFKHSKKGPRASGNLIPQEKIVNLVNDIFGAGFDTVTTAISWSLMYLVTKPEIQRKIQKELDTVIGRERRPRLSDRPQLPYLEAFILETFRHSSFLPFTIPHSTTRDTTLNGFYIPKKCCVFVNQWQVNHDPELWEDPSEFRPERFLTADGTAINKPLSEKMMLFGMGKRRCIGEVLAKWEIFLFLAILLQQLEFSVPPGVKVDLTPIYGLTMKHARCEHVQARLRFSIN"}, "[2]": {"biological_target": "Cytochrome P450 2C9 (Homo sapiens, UniProt P11712)", "sequence (P11712 whole entry)": "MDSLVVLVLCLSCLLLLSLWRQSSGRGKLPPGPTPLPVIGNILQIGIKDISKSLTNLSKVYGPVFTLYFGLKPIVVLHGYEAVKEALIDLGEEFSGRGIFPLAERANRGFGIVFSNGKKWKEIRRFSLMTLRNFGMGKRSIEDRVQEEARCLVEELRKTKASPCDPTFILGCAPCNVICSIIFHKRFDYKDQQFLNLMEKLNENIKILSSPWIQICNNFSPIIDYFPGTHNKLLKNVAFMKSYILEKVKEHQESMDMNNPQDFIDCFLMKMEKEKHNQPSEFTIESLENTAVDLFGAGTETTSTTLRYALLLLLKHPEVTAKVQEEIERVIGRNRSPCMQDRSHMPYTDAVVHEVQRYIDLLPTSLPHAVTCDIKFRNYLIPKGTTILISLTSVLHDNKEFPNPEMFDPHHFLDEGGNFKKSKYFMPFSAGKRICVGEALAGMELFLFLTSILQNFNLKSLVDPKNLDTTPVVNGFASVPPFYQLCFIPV"}, "[3]": {"biological_target": "Cytochrome P450 2D6 (Homo sapiens, UniProt P10635)", "sequence (P10635 whole entry)": "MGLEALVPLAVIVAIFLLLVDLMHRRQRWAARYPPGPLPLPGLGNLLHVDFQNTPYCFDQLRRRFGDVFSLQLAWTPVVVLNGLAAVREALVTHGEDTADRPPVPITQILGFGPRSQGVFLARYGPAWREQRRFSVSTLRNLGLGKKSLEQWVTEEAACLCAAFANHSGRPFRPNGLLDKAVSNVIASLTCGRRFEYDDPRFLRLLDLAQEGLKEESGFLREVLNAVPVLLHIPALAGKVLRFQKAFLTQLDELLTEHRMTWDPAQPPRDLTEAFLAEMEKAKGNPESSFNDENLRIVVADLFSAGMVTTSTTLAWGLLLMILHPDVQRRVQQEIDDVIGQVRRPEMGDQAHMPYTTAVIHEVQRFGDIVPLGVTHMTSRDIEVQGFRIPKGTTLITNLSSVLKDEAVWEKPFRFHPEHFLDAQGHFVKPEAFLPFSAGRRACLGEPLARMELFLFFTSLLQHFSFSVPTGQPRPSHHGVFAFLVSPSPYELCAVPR"}, "[4]": {"biological_target": "Cytochrome P450 2C19 (Homo sapiens, UniProt P33261)", "sequence (P33261 whole entry)": "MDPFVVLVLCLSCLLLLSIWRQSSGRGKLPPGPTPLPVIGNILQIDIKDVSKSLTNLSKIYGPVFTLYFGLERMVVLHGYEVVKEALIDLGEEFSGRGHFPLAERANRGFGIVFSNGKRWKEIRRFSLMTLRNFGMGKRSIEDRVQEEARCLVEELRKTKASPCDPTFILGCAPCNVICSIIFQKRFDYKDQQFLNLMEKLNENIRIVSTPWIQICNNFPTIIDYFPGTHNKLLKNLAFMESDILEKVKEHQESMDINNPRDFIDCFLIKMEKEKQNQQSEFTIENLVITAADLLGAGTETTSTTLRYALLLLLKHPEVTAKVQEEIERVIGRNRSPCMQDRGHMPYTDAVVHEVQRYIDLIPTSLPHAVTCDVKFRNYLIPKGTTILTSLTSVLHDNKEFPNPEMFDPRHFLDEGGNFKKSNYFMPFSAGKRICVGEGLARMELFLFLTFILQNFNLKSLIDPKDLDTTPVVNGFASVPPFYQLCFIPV", "assay": "Cytochrome panel assay with activity outcomes. Panel member name: p450-cyp2c19 Compounds with AC50 equal or less than 10 uM are considered active", "format": "functional"}, "[5]": {"test_system": "Streptococcus", "assay": "Group A Streptococcus viability loss, dose response, counter-screen for streptokinase expression inhibitor project, luminescence, BacTiterGlo (AID 1915);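 further: potency for reduction of bacterial viability or growth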", "format": "functional, organism-based"}, "[6]": {"biological_target": "T2, Streptokinase A (Streptococcus pyogenes serotype M1, UniProt P10520)", "T2 sequence (P10520 whole entry)": "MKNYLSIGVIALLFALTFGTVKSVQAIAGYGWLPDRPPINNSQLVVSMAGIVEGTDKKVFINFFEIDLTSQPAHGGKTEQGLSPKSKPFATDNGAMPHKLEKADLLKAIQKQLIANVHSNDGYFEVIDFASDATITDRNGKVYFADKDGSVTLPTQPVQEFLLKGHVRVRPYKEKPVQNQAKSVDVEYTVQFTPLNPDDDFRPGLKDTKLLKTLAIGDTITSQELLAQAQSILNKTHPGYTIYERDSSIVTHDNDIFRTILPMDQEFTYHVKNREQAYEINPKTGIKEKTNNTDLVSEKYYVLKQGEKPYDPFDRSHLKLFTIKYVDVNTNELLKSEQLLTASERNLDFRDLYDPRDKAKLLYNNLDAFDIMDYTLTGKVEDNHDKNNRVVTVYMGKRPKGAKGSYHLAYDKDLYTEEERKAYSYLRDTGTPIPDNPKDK", "assay": "S. pyogenes streptokinase expression inhibitors, potency, dose response, plasminogen activation absorbance, OD405 (AID 1914);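 further: secreted streptokinase activity via plasminogen activation per viability signal from cell pellet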", "format": "functional, Streptococcus pyogenes M1 GAS"}, "[7]": {"test_system": "Streptococcus sp. 'group A'", "assay": "growth inhibition of control SK(-) GAS strain, dose response, counter-screen for streptokinase expression inhibitor project, luminescence, kanamycin, BacTiterGlo, confirmation (AID 1900)", "format": "functional, organism-based"}, "[8]": {"biological_target": "Cytochrome P450 3A4 (Homo sapiens, UniProt P08684)", "sequence (P08684 whole entry)": "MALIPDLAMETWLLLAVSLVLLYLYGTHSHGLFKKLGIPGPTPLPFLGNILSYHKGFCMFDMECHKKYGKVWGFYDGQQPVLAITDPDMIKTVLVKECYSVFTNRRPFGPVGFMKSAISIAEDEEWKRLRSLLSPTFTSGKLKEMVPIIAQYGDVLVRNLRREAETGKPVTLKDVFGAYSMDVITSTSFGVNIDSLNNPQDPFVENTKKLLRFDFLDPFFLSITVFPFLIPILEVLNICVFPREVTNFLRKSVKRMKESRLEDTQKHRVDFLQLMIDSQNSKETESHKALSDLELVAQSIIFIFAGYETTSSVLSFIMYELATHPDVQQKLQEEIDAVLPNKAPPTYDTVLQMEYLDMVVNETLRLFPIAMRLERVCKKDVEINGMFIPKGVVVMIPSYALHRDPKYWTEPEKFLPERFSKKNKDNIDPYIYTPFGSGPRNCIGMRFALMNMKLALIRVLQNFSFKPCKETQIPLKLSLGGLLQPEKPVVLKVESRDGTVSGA"}, "[9]": {"biological_target": "T3, Heat shock factor protein 1 (Mus musculus, UniProt P38532)", "T3 sequence (P38532 whole entry)": "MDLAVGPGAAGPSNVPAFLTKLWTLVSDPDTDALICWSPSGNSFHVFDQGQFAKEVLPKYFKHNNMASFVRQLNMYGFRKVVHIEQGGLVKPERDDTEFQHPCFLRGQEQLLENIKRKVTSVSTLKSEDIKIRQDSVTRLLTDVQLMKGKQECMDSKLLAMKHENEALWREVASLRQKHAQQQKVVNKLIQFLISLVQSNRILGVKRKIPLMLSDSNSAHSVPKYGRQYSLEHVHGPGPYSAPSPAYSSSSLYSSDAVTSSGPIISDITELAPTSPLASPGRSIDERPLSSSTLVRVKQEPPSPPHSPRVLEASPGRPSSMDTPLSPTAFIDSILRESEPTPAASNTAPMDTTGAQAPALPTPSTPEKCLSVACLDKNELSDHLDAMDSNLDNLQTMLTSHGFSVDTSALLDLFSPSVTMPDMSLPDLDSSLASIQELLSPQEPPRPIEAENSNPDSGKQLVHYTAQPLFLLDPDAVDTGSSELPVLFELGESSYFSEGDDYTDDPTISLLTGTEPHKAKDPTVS", "assay": "inhibition of MG132-induced HSE-luciferase signal, confirmation, cell-based, NIH3T3, luminescence, dose retest (AID 2382);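 further: NIH3T3 fibroblasts with HSF1-driven luciferase reporter stressed by proteasome inhibitor MG132; luminescence from HSF1-driven luciferase expression after 8 hours of MG132 stress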", "format": "functional"}, "[10]": {"assay": "Luminescence Cell-Based Dose Confirmation HTS to Identify Activators of 5'UTR Stem-Loop Driven Alpha-Synuclein mRNA Translation in H4 Neuroglioblastoma Cells. [Related pubchem assays: 1829 (Project Summary), 1814 (Primary HTS)]", "format": "functional"}, "[11]": {"test_system": "H4", "assay": "Luminescence Cell-Based Dose Response HTS to Identify Activators of 5'UTR Stem-Loop Driven Prion Protein mRNA Translation in H4 Neuroglioblastoma Cells. [Related pubchem assays: 1829 (Project Summary), 1814 (Primary HTS)]", "format": "functional", "conditions": "Homo sapiens"}, "[12]": {"assay": "Luminescence Cell-Based Dose Response HTS to Identify Activators of Luciferase Translation or Activity in H4 […] Cells. [Related pubchem assays: 1829 (Project Summary), 1814 (Primary HTS)]", "format": "functional"}},
  "note": "The source made the active and inactive calls.",
  "data": [
    {"molecule": "N[C@@H](C(=O)O)c1ccc(P(=O)(O)O)cc1", "values": [
      {"measurement": "AC50", "setting": "[1]", "result": "20 µM (inconclusive)"},
      {"measurement": "AC50", "setting": "[2]", "result": "31.6 µM (inconclusive)"}
    ]},
    {"molecule": "COc1ccccc1CNc1ccnc(-c2ccc(C(=O)N(C)C)cc2)n1", "values": [
      {"measurement": "AC50", "setting": "[3]", "result": "39.8 µM (inconclusive)"},
      {"measurement": "AC50", "setting": "[4]; read-out: AC50", "result": "39.8 µM (inconclusive)"}
    ]},
    {"molecule": "Oc1ccccc1/C=N/NC(=S)NC1CC2CCC1C2", "note": "(centres undefined)", "values": [
      {"measurement": "EC50", "setting": "[5]", "result": "8.53 µM (active)"},
      {"measurement": "EC50", "setting": "[6]", "result": "> 150 µM (not active)"},
      {"measurement": "EC50", "setting": "[7]", "result": "4.8 µM (active)"}
    ]},
    {"molecule": "CC(=O)c1cc(C)ccc1OC(=O)CCN1C(=O)C2C3c4ccccc4C(c4ccccc43)C2C1=O", "note": "(centres undefined)", "values": [
      {"measurement": "AC50", "setting": "[4]; read-out: AC50", "result": "10 µM (inconclusive)"},
      {"measurement": "AC50", "setting": "[8]", "result": "31.6 µM (inconclusive)"}
    ]},
    {"molecule": "COC(=O)[C@H](C)NC(=O)NCCC1=CCCCC1", "values": [
      {"measurement": "EC50", "setting": "[9]", "result": "> 195 µM (not active)"}
    ]},
    {"molecule": "COc1ccc(C(=O)N2CCCC(Nc3ccc(C)c(C)c3)C2)cc1F", "note": "(centres undefined)", "values": [
      {"measurement": "EC50", "setting": "[5]", "result": "> 150 µM (not active)"},
      {"measurement": "EC50", "setting": "[6]", "result": "> 150 µM (not active)"},
      {"measurement": "EC50", "setting": "[7]", "result": "> 150 µM (not active)"}
    ]},
    {"molecule": "CC1=NN(C(N)=S)C(=O)C1N=Nc1ccc(Cl)cc1Cl", "note": "(centres undefined)", "values": [
      {"measurement": "EC50", "setting": "[10]", "result": "1.09 µM (active)"},
      {"measurement": "EC50", "setting": "[11]", "result": "> 120 µM (not active)"},
      {"measurement": "EC50", "setting": "[12]", "result": "> 120 µM (not active)"}
    ]},
    {"molecule": "COc1ccc(C2N(c3ccccn3)C(=O)C3CCCN32)c(OC)c1", "note": "(centres undefined)", "values": [
      {"measurement": "AC50", "setting": "[1]", "result": "0.00631 µM (inconclusive)"},
      {"measurement": "AC50", "setting": "[4]; read-out: AC50", "result": "28.2 µM (inconclusive)"},
      {"measurement": "AC50", "setting": "[8]", "result": "22.4 µM (inconclusive)"}
    ]},
    {"molecule": "CCOC(=O)C(=NC(C)(C)C)NNc1cc(Cl)ccc1Cl", "values": [
      {"measurement": "EC50", "setting": "[5]", "result": "21.1 µM (active)"},
      {"measurement": "EC50", "setting": "[6]", "result": "7.59 µM (active)"},
      {"measurement": "EC50", "setting": "[7]", "result": "4.52 µM (active)"}
    ]},
    {"molecule": "Cc1nnc2n1N=CC=C(c1ccccc1)S2", "values": [
      {"measurement": "EC50", "setting": "[10]", "result": "0.547 µM (active)"},
      {"measurement": "EC50", "setting": "[11]", "result": "> 120 µM (not active)"},
      {"measurement": "EC50", "setting": "[12]", "result": "7.89 µM (active)"}
    ]},
    {"molecule": "Cc1ccc(/C=C2/Sc3ccc(C(=O)N4CCN(C)CC4)cc3NC2=O)cc1", "values": [
      {"measurement": "EC50", "setting": "[5]", "result": "14.2 µM (active)"},
      {"measurement": "EC50", "setting": "[6]", "result": "> 150 µM (not active)"},
      {"measurement": "EC50", "setting": "[7]", "result": "7.17 µM (active)"}
    ]},
    {"molecule": "COc1cc(Cn2cnnn2)ccc1O", "values": [
      {"measurement": "AC50", "setting": "[1]", "result": "39.8 µM (inconclusive)"},
      {"measurement": "AC50", "setting": "[2]", "result": "0.178 µM (inconclusive)"}
    ]},
    {"molecule": "COc1ccc(N2CCN(C(=O)Cc3csc(NC(=O)Nc4ccccc4OC)n3)CC2)cc1", "values": [
      {"measurement": "EC50", "setting": "[5]", "result": "32.7 µM (active)"},
      {"measurement": "EC50", "setting": "[6]", "result": "> 150 µM (not active)"},
      {"measurement": "EC50", "setting": "[7]", "result": "> 150 µM (not active)"}
    ]},
    {"molecule": "COc1cc2c(cc1OC)/C(=C/C(=O)N1CCOCC1)NC(C)(C)C2", "values": [
      {"measurement": "AC50", "setting": "[1]", "result": "15.8 µM (inconclusive)"},
      {"measurement": "AC50", "setting": "[4]; read-out: AC50", "result": "22.4 µM (inconclusive)"},
      {"measurement": "AC50", "setting": "[2]", "result": "3.98 µM (inconclusive)"}
    ]},
    {"molecule": "CCSc1ccc2c(c1)N(CCCN1CCN(C)CC1)c1ccccc1S2", "values": [
      {"measurement": "AC50", "setting": "[4]; read-out: AC50", "result": "3.16 µM (inconclusive)"},
      {"measurement": "AC50", "setting": "[8]", "result": "10 µM (inconclusive)"}
    ]},
    {"molecule": "COc1ccc(N2CC(C(=O)OCC(=O)c3cccc(OC)c3)CC2=O)cc1", "note": "(centres undefined)", "values": [
      {"measurement": "AC50", "setting": "[4]; read-out: AC50", "result": "8.91 µM (inconclusive)"}
    ]},
    {"molecule": "COc1cc(NC(=O)n2ncc3cc(Cl)ccc32)cc(OC)c1", "values": [
      {"measurement": "EC50", "setting": "[11]", "result": "12.5 µM (active)"},
      {"measurement": "EC50", "setting": "[12]", "result": "17.4 µM (active)"}
    ]},
    {"molecule": "Cc1ccc(OCC(=O)NNC(=O)CCC(=O)Nc2ccc(C)cc2C)cc1", "values": [
      {"measurement": "AC50", "setting": "[4]", "result": "inconclusive"}
    ]},
    {"molecule": "COc1ccc(C(C)N=C(S)NC2CCCCC2)cc1OC", "note": "(centres undefined)", "values": [
      {"measurement": "EC50", "setting": "[9]", "result": "> 195 µM (not active)"}
    ]},
    {"molecule": "OC1/C(=C/c2ccccc2C(F)(F)F)N2CCC1CC2", "note": "(centres undefined)", "values": [
      {"measurement": "EC50", "setting": "[9]", "result": "> 195 µM (not active)"}
    ]},
    {"molecule": "COc1ccc(C/C(C)=N/NC(=S)Nc2ccccc2F)cc1", "values": [
      {"measurement": "EC50", "setting": "[9]", "result": "96.9 µM (active)"}
    ]},
    {"molecule": "COc1ccccc1NC(=O)COC(=O)c1ccc(S(=O)(=O)NCc2ccco2)cc1", "values": [
      {"measurement": "AC50", "setting": "[1]", "result": "12.6 µM (inconclusive)"},
      {"measurement": "AC50", "setting": "[3]", "result": "11.2 µM (inconclusive)"}
    ]},
    {"molecule": "CCC1C(=O)n2nc(-c3ccccc3)cc2N=C1C", "note": "(centres undefined)", "values": [
      {"measurement": "EC50", "setting": "[10]", "result": "25.7 µM (active)"},
      {"measurement": "EC50", "setting": "[12]", "result": "6.09 µM (active)"}
    ]}
  ]
}
